Source: ChEMBL document CHEMBL1201862, “PubChem BioAssay data set” (2004)
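Test compounds were applied to cells in 96-well plates for 48 hours at 5 doses. GI50 is the concentration that inhibits growth by half.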 Activity calls are given as the source filed them. No stated cut-off is given here; in the data, active = GI50 up to about 1.1 µM and inactive = higher.

Key:
Assay in all cases: NCI tumour cell line growth inhibition, 48 h
[1] = test system: 786-0
[2] = test system: A498
[3] = test system: A549
[4] = test system: ACHN
[5] = test system: BT-549
[6] = test system: CCRF-CEM
[7] = test system: COLO 205
[8] = test system: DLD-1
[9] = test system: DMS-114
[10] = test system: DMS-273
[11] = test system: DU-145
[12] = test system: EKVX
[13] = test system: HCC 2998
[14] = test system: HCT-116
[15] = test system: HCT-15
[16] = test system: HL-60
[17] = test system: HOP-18
[18] = test system: HOP-62
[19] = test system: HOP-92
[20] = test system: HT-29
[21] = test system: Hs-578T
[22] = test system: IGROV-1
[23] = test system: K562
[24] = test system: KM-20L2
[25] = test system: KM12
[26] = test system: LOX IMVI
[27] = test system: M14
[28] = test system: M19-MEL
[29] = test system: MCF7
[30] = test system: MDA-MB-231
[31] = test system: MDA-MB-435
[32] = test system: MDA-N
[33] = test system: Malme-3M
[34] = test system: NCI-H226
[35] = test system: NCI-H23
[36] = test system: NCI-H460
[37] = test system: NCI-H522
[38] = test system: NCI/ADR-RES
[39] = test system: OVCAR-3
[40] = test system: OVCAR-4
[41] = test system: OVCAR-5
[42] = test system: OVCAR-8
[43] = test system: PC-3
[44] = test system: RPMI-8226
[45] = test system: RXF 393
[46] = test system: SF-268
[47] = test system: SF-295
[48] = test system: SF-539
[49] = test system: SK-MEL-28
[50] = test system: SK-MEL-2
[51] = test system: SK-MEL-5
[52] = test system: SK-OV-3
[53] = test system: SN12C
[54] = test system: SNB-19
[55] = test system: SNB-75
[56] = test system: SNB-78
[57] = test system: SR
[58] = test system: SW-620
[59] = test system: T47D
[60] = test system: TK-10
[61] = test system: U-251
[62] = test system: UACC-257
[63] = test system: UACC-62
[64] = test system: XF498
[65] = test system: CAKI-1
[66] = test system: MOLT-4
[67] = test system: UO-31

## CC[C@@]1(O)CC(OC2CC(N3CCOCC3)C(O)C(C)O2)c2c(O)c3c(c(O)c2[C@H]1O)C(=O)c1cccc(O)c1C3=O (stereo partly drawn)
[1]
  GI50: 40.7 nM (active)
[2]
  GI50: 191 nM (active)
[3]
  GI50: 26.7 nM (active)
[4]
  GI50: 35.9 nM (active)
[5]
  GI50: 50.8 nM (active)
[6]
  GI50: 37.9 nM (active)
[7]
  GI50: 84.7 nM (active)
[8]
  GI50: 143 nM (active)
[9]
  GI50: 93.5 nM (active)
[10]
  GI50: 35.8 nM (active)
[11]
  GI50: 84 nM (active)
[12]
  GI50: 318 nM (active)
[13]
  GI50: 223 nM (active)
[14]
  GI50: 51.9 nM (active)
[15]
  GI50: 57.3 nM
[16]
  GI50: 31.1 nM (active)
[17]
  GI50: 237 nM (active)
[18]
  GI50: 67.9 nM (active)
[19]
  GI50: 42.9 nM (active)
[20]
  GI50: 90.2 nM (active)
[21]
  GI50: 348 nM (active)
[22]
  GI50: 95.9 nM (active)
[23]
  GI50: 112 nM (active)
[24]
  GI50: 191 nM (active)
[25]
  GI50: 182 nM (active)
[26]
  GI50: 64.4 nM (active)
[27]
  GI50: 356 nM (active)
[28]
  GI50: 101 nM (active)
[29]
  GI50: 29.3 nM (active)
[30]
  GI50: 348 nM (active)
[31]
  GI50: 304 nM (active)
[32]
  GI50: 131 nM (active)
[33]
  GI50: 50.2 nM (active)
[34]
  GI50: 89.3 nM (active)
[35]
  GI50: 175 nM (active)
[36]
  GI50: 6.86 nM (active)
[37]
  GI50: 166 nM (active)
[38]
  GI50: 145 nM (active)
[39]
  GI50: 355 nM (active)
[40]
  GI50: 231 nM (active)
[41]
  GI50: 371 nM (active)
[42]
  GI50: 90.4 nM (active)
[43]
  GI50: 95.7 nM (active)
[44]
  GI50: 89.7 nM (active)
[45]
  GI50: 196 nM (active)
[46]
  GI50: 122 nM (active)
[47]
  GI50: 57.5 nM (active)
[48]
  GI50: 103 nM (active)
[49]
  GI50: 378 nM (active)
[50]
  GI50: 312 nM (active)
[51]
  GI50: 96.6 nM (active)
[52]
  GI50: 126 nM (active)
[53]
  GI50: 66.7 nM (active)
[54]
  GI50: 127 nM (active)
[55]
  GI50: 139 nM (active)
[56]
  GI50: 305 nM (active)
[57]
  GI50: 19.3 nM (active)
[58]
  GI50: 46.9 nM (active)
[59]
  GI50: 179 nM (active)
[60]
  GI50: 452 nM (active)
[61]
  GI50: 80 nM (active)
[62]
  GI50: 214 nM (active)
[63]
  GI50: 66.7 nM (active)
[64]
  GI50: 49.3 nM (active)

## Cc1cc(O)c2c(c1)C(=O)c1c(c(O)cc(O)c1-c1c(O)cc(O)c3c1C(=O)c1cc(C)cc(O)c1C3=O)C2=O [SKYRIN]
[2]
  GI50: 14400 nM (inactive)
[3]
  GI50: 8870 nM (inactive)
[65]
  GI50: 16800 nM (inactive)
[6]
  GI50: 7600 nM (inactive)
[7]
  GI50: 24800 nM (inactive)
[8]
  GI50: 8750 nM (inactive)
[9]
  GI50: 16700 nM (inactive)
[10]
  GI50: 7760 nM (inactive)
[12]
  GI50: 11900 nM (inactive)
[13]
  GI50: 11400 nM (inactive)
[14]
  GI50: 8990 nM (inactive)
[15]
  GI50: 8610 nM
[16]
  GI50: 7110 nM (inactive)
[17]
  GI50: 10400 nM (inactive)
[18]
  GI50: 12400 nM (inactive)
[19]
  GI50: 13100 nM (inactive)
[20]
  GI50: 13100 nM (inactive)
[22]
  GI50: 12900 nM (inactive)
[23]
  GI50: 7870 nM (inactive)
[24]
  GI50: 16300 nM (inactive)
[25]
  GI50: 9080 nM (inactive)
[26]
  GI50: 12900 nM (inactive)
[28]
  GI50: 17100 nM (inactive)
[29]
  GI50: 15000 nM (inactive)
[66]
  GI50: 8590 nM (inactive)
[33]
  GI50: 15000 nM (inactive)
[34]
  GI50: 3070 nM (inactive)
[35]
  GI50: 13100 nM (inactive)
[36]
  GI50: 9080 nM (inactive)
[37]
  GI50: 17100 nM (inactive)
[38]
  GI50: 35200 nM (inactive)
[39]
  GI50: 6310 nM (inactive)
[40]
  GI50: 10900 nM (inactive)
[41]
  GI50: 38000 nM (inactive)
[42]
  GI50: 8260 nM (inactive)
[44]
  GI50: 5930 nM (inactive)
[45]
  GI50: 19300 nM (inactive)
[46]
  GI50: 13900 nM (inactive)
[47]
  GI50: 9250 nM (inactive)
[48]
  GI50: 10600 nM (inactive)
[49]
  GI50: 11700 nM (inactive)
[50]
  GI50: 11500 nM (inactive)
[51]
  GI50: 9440 nM (inactive)
[52]
  GI50: 32400 nM (inactive)
[53]
  GI50: 10600 nM (inactive)
[54]
  GI50: 2500 nM (inactive)
[55]
  GI50: 15800 nM (inactive)
[56]
  GI50: 26900 nM (inactive)
[58]
  GI50: 14400 nM (inactive)
[61]
  GI50: 8360 nM (inactive)
[62]
  GI50: 17500 nM (inactive)
[63]
  GI50: 10400 nM (inactive)
[67]
  GI50: 5260 nM (inactive)
[64]
  GI50: 21100 nM (inactive)
